Source: patent US11999746B2, “Compounds” (GlaxoSmithKline Intellectual Property Development Limited, priority 2014, dated 2024)
Structures can show the parent of a compound that is named as a salt.

Key:
[1] = target: T1, recombinant human Lp-PLA2 (Homo sapiens, UniProt Q13093); test: (1a) PED6 assay, recombinant human Lp-PLA2 (rhLp-PLA2); assay type: biochemical; conditions: Examples 1-167 and 413-430 were tested here, one experiment or average of multiple experiments, read-out: rhLp-PLA2 (pIC50) (converted)
T1 sequence (Q13093 22-441): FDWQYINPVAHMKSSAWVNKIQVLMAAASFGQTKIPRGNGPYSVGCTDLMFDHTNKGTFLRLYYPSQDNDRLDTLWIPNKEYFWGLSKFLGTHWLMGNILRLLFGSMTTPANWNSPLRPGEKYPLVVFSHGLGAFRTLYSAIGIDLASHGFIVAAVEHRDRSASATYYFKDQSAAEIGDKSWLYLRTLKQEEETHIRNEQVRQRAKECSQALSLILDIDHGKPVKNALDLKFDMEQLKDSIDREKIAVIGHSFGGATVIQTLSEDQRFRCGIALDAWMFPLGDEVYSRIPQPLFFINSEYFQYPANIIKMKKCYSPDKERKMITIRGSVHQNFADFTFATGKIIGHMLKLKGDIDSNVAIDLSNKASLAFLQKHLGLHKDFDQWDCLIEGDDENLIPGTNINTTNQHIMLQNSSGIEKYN
Method in brief: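 PED6 (2 μM final after 1:1 addition of 4 μM stock) cleavage by rhLp-PLA2 (4 nM working solution) in 50 mM HEPES pH 7.4, 150 mM NaCl, 1 mM CHAPS; compounds preincubated with enzyme 30 minutes, reaction 20 min at room temperature. Fluorescence at ex 480/em 540; pIC50 from curve fit.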

Lp-PLA2 in human plasma = target: T2, Lp-PLA2 in human plasma (Homo sapiens, UniProt Q13093); test: (3a) Lp-PLA2 human plasma Thio-PAF assay; assay type: biochemical; conditions: (3a) Thio-PAF assay, pooled human plasma; Examples 1-265 and 413-430 were tested here; read-out: pIC50 in the Lp-PLA2 human plasma assay (converted)
T2 construct: from tissue; host or cells: pooled human plasma
T2 sequence (Q13093 22-441): T1 sequence (Q13093 22-441)
Method in brief: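 Pooled human plasma preincubated 30 min with serially diluted compound, then given 2-thio-PAF substrate with CPM and NEM in 50 mM HEPES pH 7.4, 150 mM NaCl, 1 mM CHAPS. Reaction quenched with TFA after 2 min; CPM thiol-adduct fluorescence read at ex 380/em 485 after 40 min; pIC50 reported.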

IC50 [1] [nM] | IC50 (Lp-PLA2 in human plasma) [nM] | Compound
≤ 100 | ≤ 100 | O=c1nc(OCc2cccc(F)c2F)cc2n1C[C@@H]1COCCN21 [Example E131, (R)-7-((2,3-difluorobenzyl)oxy)-3,4,11,11a-tetrahydropyrimido[6′,1′:2,3]imidazo[5,1-c][1,4] oxazin-9(1H)-one]
≤ 100 | ≤ 10000 | CN1c2cc(OCc3ccc(F)cc3F)nc(=O)n2CC12CCC2 [Example 416, 7′4(2,4-difluorobenzyhoxy)-1-methyl-1H-spiro[cyclobutane-1,2′-imidazo[1,2-c]pyrimidin]-5′(3′H)-one]
≤ 100 | ≤ 10000 | O=c1nc(OCc2cccc(F)c2)cc2n1C[C@@H]1CCCCN21 [Example E60, (S)-3-((3-Fluorobenzyl)oxy)-6,7,8,9,9a,10-hexahydro-1H-pyrido[1′,2′:3,4]imidazo[1,2-c] pyrimidin-1-one]
≤ 100 | ≤ 100 | O=c1nc(OCc2ccc(F)c(F)c2)cc2n1C[C@H]1CCCCN21 [Example E30, (R)-3-((3,4-Difluorobenzyl)oxy)-6,7,8,9,9a,10-hexahydro-1H-pyrido[1′,2′:3,4]imidazo[1,2-c]pyrimidin-1-one]
≤ 100 | ≤ 100 | O=c1nc(OCc2cc(F)c(Oc3ccnc(C(F)(F)F)c3)c(F)c2)cc2n1CC1OCCN21 (single isomer, unassigned) [Example E165, 6-((3,5-difluoro-4-((2-(trifluoromethyl)pyridin-4-yl)oxy)benzyl)oxy)-10,10a-dihydro-2H-oxazolo[3′,2′:3,4]imidazo[1,2-c]pyrimidin-8(3H)-one]
≤ 100 | ≤ 10000 | CN1c2cc(OCc3cccc(F)c3F)nc(=O)n2CC12CCCCC2 [Example 425, 7′4(2,3-difluorobenzyhoxy)-1-methyl-1H-spiro[cyclohexane-1,2′-imidazo[1,2-c]pyrimidin]-5′(3′H)-one]
≤ 1 | ≤ 100 | N#Cc1cc(Oc2ccc(COc3cc4n(c(=O)n3)CC3CCCCN43)cc2F)cc(C(F)(F)F)c1 (stereo not shown) [Example E28, 3-(2-Fluoro-4-(((1-oxo-6,7,8,9,9a,10-hexahydro-1H-pyrido[1′,2′:3,4]imidazo[1,2-c]pyrimidin-3-yl)oxy)methyl)phenoxy)-5-(trifluoromethyl)benzonitrile]
≤ 1 | ≤ 100 | O=c1nc(OCc2cc(F)c(Oc3ccnc(C(F)(F)F)c3)c(F)c2)cc2n1C[C@@H]1CCOCN21 [Example E134, (S)-3-((3,5-difluoro-4-((2-(trifluoromethyl)pyridin-4-yl)oxy)benzyl)oxy)-8,9,9a,10-tetrahydropyrimido[6′,1′:2,3]imidazo[1,5-c][1,3]oxazin-1(6H)-one]
≤ 100 | ≤ 10000 | O=c1nc(OCc2cc(F)cc(F)c2)cc2n1C[C@@H]1CCCCN21 [Example E35, (S)-3-((3,5-Difluorobenzyl)oxy)-6,7,8,9,9a,10-hexahydro-1H-pyrido[1′,2′:3,4]imidazo[1,2-c]pyrimidin-1-one]
≤ 1 | ≤ 100 | O=c1nc(OCc2ccc(Oc3ccnc(C(F)(F)F)c3)c(F)c2)cc2n1CC1CCCCN21 (stereo not shown) [Example E17, 3-((3-Fluoro-4-((2-(trifluoromethyl)pyridin-4-yl)oxy)benzyl)oxy)-6,7,8,9,9a,10-hexahydro-1H-pyrido[1′,2′:3,4]imidazo[1,2-c]pyrimidin-1-one]
≤ 1 | ≤ 100 | N#Cc1cc(COc2cc3n(c(=O)n2)CC2CCCCN32)ccc1Oc1cccc(C(F)(F)F)c1 (stereo not shown) [Example E12, 5-(((1-Oxo-6,7,8,9,9a,10-hexahydro-1H-pyrido[1′,2′:3,4]imidazo[1,2-c]pyrimidin-3-yl)oxy)methyl)-2-(3-(trifluoromethyl)phenoxy)benzonitrile]
≤ 100 | ≤ 100 | O=c1nc(OCc2cccc(F)c2F)cc2n1C[C@H]1COCCN21 [Example E127, (S)-7-((2,3-difluorobenzyl)oxy)-3,4,11,11a-tetrahydropyrimido[6′,1′:2,3]imidazo[5,1-c][1,4] oxazin-9(1H)-one]
≤ 100 | ≤ 100 | O=c1nc(OCc2ccc(F)c(F)c2)cc2n1CC1CCCCN21 (stereo not shown) [Example E5, 3-((3,4-Difluorobenzyl)oxy)-6,7,8,9,9a,10-hexahydro-1H-pyrido[1′,2′:3,4]imidazo[1,2-c] pyrimidin-1-one]
≤ 1 | ≤ 100 | N#Cc1cc(Oc2ccc(COc3cc4n(c(=O)n3)CC3CCCCN43)cc2F)ccc1Cl (stereo not shown) [Example E11, 2-Chloro-5-(2-fluoro-4-(((1-oxo-6,7,8,9,9a,10-hexahydro-1H-pyrido[1′,2′:3,4]imidazo[1,2-c]pyrimidin-3-yl)oxy)methyl)phenoxy)benzonitrile]

Further lines, the molecule ahead of its results:

Compound | IC50 [1] [nM] | IC50 (Lp-PLA2 in human plasma) [nM]
N#Cc1cccc(COc2cc3n(c(=O)n2)C[C@@H]2CCCCN32)c1 [Example E33, (S)-3-(((1-Oxo-6,7,8,9,9a,10-hexahydro-1H-pyrido[1′,2′:3,4]imidazo[1,2-c]pyrimidin-3-yl)oxy)methyl)benzonitrile] | ≤ 100 | ≤ 10000
O=c1nc(OCc2cc(F)cc(Cl)c2)cc2n1CC1CCCCN21 (stereo not shown) [Example E29, 3-((3-Chloro-5-fluorobenzyl)oxy)-6,7,8,9,9a,10-hexahydro-1H-pyrido[1′,2′:3,4]imidazo[1,2-c]pyrimidin-1-one] | ≤ 100 | ≤ 10000
Cc1ccc(Oc2c(F)cc(COc3cc4n(c(=O)n3)C[C@H]3COCCN43)cc2F)cn1 [Example E125, (S)-7-((3,5-difluoro-4-((6-methylpyridin-3-yl)oxy)benzyl)oxy)-3,4,11,11atetrahydropyrimido[6′,1′:2,3]imidazo[5,1-c][1,4]oxazin-9(1H)-one] | 0.0631 | ≤ 100
CN1c2cc(OCc3ccc(F)cc3F)nc(=O)n2CC12CCCCC2 [Example 427, 7′4(2,4-difluorobenzyhoxy)-1-methyl-1H-spiro[cyclohexane-1,2′-imidazo[1,2-c]pyrimidin]-5′(3′H)-one] | ≤ 100 | ≤ 10000
O=c1nc(OCc2cccc(F)c2)cc2n1C[C@H]1COCN21 [Example E148, (S)-6-((3-fluorobenzyl)oxy)-10,10a-dihydro-1H-oxazolo[3′,4′:3,4]imidazo[1,2-c]pyrimidin-8(3H)-one] | ≤ 100 | ≤ 10000
CN1c2cc(OCc3cc(F)c(F)cc3F)nc(=O)n2CC12CCCCC2 [Example 428, 1-methyl-7′-((2,4,5-trifluorobenzyl)oxy)-1′H-spiro[cyclohexane-1,2′-imidazo[1,2-c]pyrimidin]-5′(3′H)-one] | ≤ 100 | ≤ 10000
O=c1nc(OCc2cccc(F)c2)cc2n1C[C@H]1COCCN21 [Example E128, (S)-7-((3-fluorobenzyl)oxy)-3,4,11,11a-tetrahydropyrimido[6′,1′:2,3]imidazo[5,1-c][1,4] oxazin-9(1H)-one] | 10 | ≤ 100
Cn1cc(Oc2c(F)cc(COc3cc4n(c(=O)n3)CC3CCCN43)cc2F)cn1 (stereo not shown) [Example E63, 3-((3,5-Difluoro-4-((1-methyl-1H-pyrazol-4-yl)oxy)benzyl)oxy)-7,8,8a,9-tetrahydro pyrrolo[1′,2′:3, 4] imidazo[1,2-c] pyrimidin-1(6H)-one] | ≤ 100 | ≤ 10000
O=c1nc(OCc2cc(F)c(OC3(CCF)CC3)c(F)c2)cc2n1C[C@H]1CCCCN21 [Example E62, (R)-3-((3,5-Difluoro-4-(1-(2-fluoroethyl)cyclopropoxy)benzyl)oxy)-6,7,8,9,9a,10-hexahydro-1H-pyrido[1′,2′:3,4]imidazo[1,2-c]pyrimidin-1-one] | ≤ 100 | ≤ 10000
O=c1nc(OCc2ccc(F)cc2)cc2n1CC1CCCCN21 (stereo not shown) [Example E1, 3-((4-Fluorobenzyl)oxy)-6,7,8,9,9a,10-hexahydro-1H-pyrido[1,2′:3,4]imidazo[1,2-c] pyrimidin-1-one trifluoroacetate salt] | ≤ 100 | ≤ 10000
CC(C)n1cc(Oc2c(F)cc(COc3cc4n(c(=O)n3)CC3CCCN43)cc2F)cn1 (stereo not shown) [Example E65, 3-((3,5-Difluoro-4-((1-isopropyl-1H-pyrazol-4-yl)oxy)benzyl)oxy)-7,8,8a, 9-tetrahydro pyrrolo[1′,2′:3,4]imidazo[1,2-c]pyrimidin-1(6H)-one] | ≤ 100 | ≤ 10000
O=c1nc(OCc2cc(F)c(Oc3cnc(C(F)(F)F)nc3)c(F)c2)cc2n1C[C@@H]1CCCN21 [Example E91, (S)-3-((3,5-difluoro-4-((2-(trifluoromethyl)pyrimidin-5-yl)oxy)benzyl)oxy)-7,8,8a,9-tetra hydropyrrolo[1′,2′:3,4]imidazo[1,2-c]pyrimidin-1(6H)-one] | ≤ 1 | ≤ 100
